Experimental data: patent US6642251B1, “Geometrically restricted 2-indolinone derivatives as modulators of protein kinase activity” (Sugen, Inc., priority 1998, dated 2003)

System: A375 cells (melanoma)
Experiment: A375 sc xenograft animal model
Assay type: in vivo, athymic mice (BALB/c, nu/nu)
Settings: for % inhibition: vs vehicle
Description: The ability of human tumors to grow as xenografts in athymic mice (e.g., Balb/c, nu/nu) provides a useful in vivo model for studying the biological response to therapies for human tumors. Since the first successful xeno-transplantation of human tumors into athymic mice, (Rygaard and Poylsen, 1969, Acta Pathol. Microbial. Scand., 77:758-760), many different human tumor cell lines (e.g., mammary, lung, genitourinary, gastro-intestinal, head and neck, glioblastoma, bone, and malignant melanomas) have been transplanted and successfully grown in nude mice. The following assays may be used to determine the level of activity, specificity and effect of the different compounds of the present invention. Three general types of assays are useful for evaluating compounds: cellular/catalytic, cellular/biological and in vivo. The object of the cellular/catalytic assays is to determine the effect of a compound on the ability of a TK to phosphorylate tyrosines on a known substrate in a cell. The object of the cellular/biological assays is to determine the effect of a compound on the biological response stimulated by a TK in a cell. The object of the in vivo assays is to determine the effect of a compound in an animal model of a particular disorder such as cancer.
Suitable cell lines for subcutaneous xenograft experiments include C6 cells (glioma, ATCC #CCL 107), A375 cells (melanoma, ATCC #CRL 1619), A431 cells (epidermoid carcinoma, ATCC #CRL 1555), Calu 6 cells (lung, ATCC #HTB 56), PC3 cells (prostate, ATCC #CRL 1435), SKOV3TP5 cells and NIH 3T3 fibroblasts genetically engineered to overexpress EGFR, PDGFR, IGF-1R or any other test kinase. The following protocol can be used to perform xenograft experiments:
Female athymic mice (BALB/c, nu/nu) are obtained from Simonsen Laboratories (Gilroy, Calif.). All animals are maintained under clean-room conditions in Micro-isolator cages with Alpha-dri bedding. They receive sterile rodent chow and water ad libitum.
Cell lines are grown in appropriate medium (for example, MEM, DMEM, Ham's F10, or Ham's F12 plus 5%-10% fetal bovine serum (FBS) and 2 mM glutamine (GLN)). All cell culture media, glutamine, and fetal bovine serum are purchased from Gibco Life Technologies (Grand Island, N.Y.) unless otherwise specified. All cells are grown in a humid atmosphere of 90-95% air and 5-10% CO2 at 37° C. All cell lines are routinely subcultured twice a week and are negative for mycoplasma as determined by the Mycotect method (Gibco).
Cells are harvested at or near confluency with 0.05% Trypsin-EDTA and pelleted at 450×g for 10 min. Pellets are resuspended in sterile PBS or media (without FBS) to a particular concentration and the cells are implanted into the hindflank of the mice (8-10 mice per group, 2-10×10^6 cells/animal). Tumor growth is measured over 3 to 6 weeks using venier calipers. Tumor volumes are calculated as a product of length×width×height unless otherwise indicated. P values are calculated using the Students t-test. Test compounds in 50-100 μL excipient (DMSO, or VPD:D5W (U.S. Pat. No. 5,610,173 to Sxhwartz, et al.), can be delivered by IP injection at different concentrations generally starting at day one after implantation.

COc1ccc2c(c1)C(CC(=O)[O-])CC2=C1C(=O)Nc2ccccc21.[Na+] (stereo not drawn) [Compound 13, [6-Methoxy-3-(2-oxo-1,2-dihydroindol-3-ylidene)-indan-1-yl]acetic Acid Sodium Salt]
Average Tumor Volume (50 mg/kg/day): 569.9 mm3 | % inhibition (50 mg/kg/day): 24.6% | Average Tumor Volume (100 mg/kg/day): 324.4 mm3 | % inhibition (100 mg/kg/day): 57.1% | Average Tumor Volume (200 mg/kg/day): 278.8 mm3 | % inhibition (200 mg/kg/day): 63.1%
